Values after ≈ are worked out from the molar mass of the structure shown.
Tests used:
Type in all cases: functional
Candida albicans = assay: Antifungal activity against Candida albicans MTCC 227 assessed as growth inhibition after 48 hr by broth microdilution method; settings: MTCC 227, 48 h
Aspergillus niger = assay: Antifungal activity against Aspergillus niger MTCC 282 assessed as growth inhibition after 48 hr by broth microdilution method; settings: MTCC 282, 48 h
Klebsiella pneumoniae = assay: Antibacterial activity against Klebsiella pneumoniae MTCC 139 assessed as growth inhibition after 24 hr by broth microdilution method; settings: MTCC 139, 24 h
Pseudomonas aeruginosa = assay: Antibacterial activity against Pseudomonas aeruginosa MTCC 1688 assessed as growth inhibition after 24 hr by broth microdilution method; settings: MTCC 1688, 24 h
Escherichia coli = assay: Antibacterial activity against Escherichia coli MTCC 443 assessed as growth inhibition after 24 hr by broth microdilution method; settings: MTCC 443, 24 h
Bacillus cereus = assay: Antibacterial activity against Bacillus cereus MTCC 1305 assessed as growth inhibition after 24 hr by broth microdilution method; settings: MTCC 1305, 24 h
Staphylococcus aureus = assay: Antibacterial activity against Staphylococcus aureus MTCC 2940 assessed as growth inhibition after 24 hr by broth microdilution method; settings: MTCC 2940, 24 h

SMILES	MIC (Candida albicans)	MIC (Aspergillus niger)	MIC (Klebsiella pneumoniae)	MIC (Pseudomonas aeruginosa)	MIC (Escherichia coli)	MIC (Bacillus cereus)	MIC (Staphylococcus aureus)
Nc1ccc(S(=O)(=O)NCc2nc3ccccc3c(=O)n2-c2cccc(Br)c2)cc1	45 µg/mL (≈ 92.7 µM)	40 µg/mL (≈ 82.4 µM)	75 µg/mL (≈ 155 µM)	55 µg/mL (≈ 113 µM)	50 µg/mL (≈ 103 µM)	60 µg/mL (≈ 124 µM)	50 µg/mL (≈ 103 µM)
Nc1ccc(S(=O)(=O)NCc2nc3ccccc3c(=O)n2-c2ccc(Br)cc2)cc1	55 µg/mL (≈ 113 µM)	45 µg/mL (≈ 92.7 µM)	75 µg/mL (≈ 155 µM)	50 µg/mL (≈ 103 µM)	50 µg/mL (≈ 103 µM)	65 µg/mL (≈ 134 µM)	55 µg/mL (≈ 113 µM)
Cc1ccccc1-n1c(CNS(=O)(=O)c2ccc(N)cc2)nc2ccccc2c1=O	100 µg/mL (≈ 238 µM)	90 µg/mL (≈ 214 µM)	100 µg/mL (≈ 238 µM)	80 µg/mL (≈ 190 µM)	70 µg/mL (≈ 166 µM)	105 µg/mL (≈ 250 µM)	90 µg/mL (≈ 214 µM)
Cc1cccc(-n2c(CNS(=O)(=O)c3ccc(N)cc3)nc3ccccc3c2=O)c1	95 µg/mL (≈ 226 µM)	85 µg/mL (≈ 202 µM)	115 µg/mL (≈ 273 µM)	85 µg/mL (≈ 202 µM)	65 µg/mL (≈ 155 µM)	100 µg/mL (≈ 238 µM)	85 µg/mL (≈ 202 µM)
Cc1ccc(-n2c(CNS(=O)(=O)c3ccc(N)cc3)nc3ccccc3c2=O)cc1	80 µg/mL (≈ 190 µM)	75 µg/mL (≈ 178 µM)	90 µg/mL (≈ 214 µM)	70 µg/mL (≈ 166 µM)	65 µg/mL (≈ 155 µM)	95 µg/mL (≈ 226 µM)	80 µg/mL (≈ 190 µM)
CC(=O)Nc1ccc(S(=O)(=O)NCc2nc3ccccc3c(=O)n2-c2ccccc2C)cc1	90 µg/mL (≈ 195 µM)	80 µg/mL (≈ 173 µM)	125 µg/mL (≈ 270 µM)	120 µg/mL (≈ 259 µM)	90 µg/mL (≈ 195 µM)	115 µg/mL (≈ 249 µM)	100 µg/mL (≈ 216 µM)
COc1ccccc1-n1c(CNS(=O)(=O)c2ccc(N)cc2)nc2ccccc2c1=O	65 µg/mL (≈ 149 µM)	55 µg/mL (≈ 126 µM)	95 µg/mL (≈ 218 µM)	80 µg/mL (≈ 183 µM)	65 µg/mL (≈ 149 µM)	80 µg/mL (≈ 183 µM)	85 µg/mL (≈ 195 µM)
COc1cccc(-n2c(CNS(=O)(=O)c3ccc(N)cc3)nc3ccccc3c2=O)c1	50 µg/mL (≈ 115 µM)	50 µg/mL (≈ 115 µM)	90 µg/mL (≈ 206 µM)	85 µg/mL (≈ 195 µM)	60 µg/mL (≈ 137 µM)	75 µg/mL (≈ 172 µM)	80 µg/mL (≈ 183 µM)
COc1ccc(-n2c(CNS(=O)(=O)c3ccc(N)cc3)nc3ccccc3c2=O)cc1	55 µg/mL (≈ 126 µM)	45 µg/mL (≈ 103 µM)	75 µg/mL (≈ 172 µM)	75 µg/mL (≈ 172 µM)	50 µg/mL (≈ 115 µM)	70 µg/mL (≈ 160 µM)	60 µg/mL (≈ 137 µM)
COc1ccccc1-n1c(CNS(=O)(=O)c2ccc(NC(C)=O)cc2)nc2ccccc2c1=O	80 µg/mL (≈ 167 µM)	70 µg/mL (≈ 146 µM)	105 µg/mL (≈ 219 µM)	110 µg/mL (≈ 230 µM)	80 µg/mL (≈ 167 µM)	95 µg/mL (≈ 199 µM)	90 µg/mL (≈ 188 µM)
CC1(C)S[C@@H]2[C@H](NC(=O)[C@H](N)c3ccccc3)C(=O)N2[C@H]1C(=O)O [AMPICILLIN]	–	–	85 µg/mL (≈ 243 µM)	55 µg/mL (≈ 157 µM)	50 µg/mL (≈ 143 µM)	60 µg/mL (≈ 172 µM)	45 µg/mL (≈ 129 µM)
CC(=O)N1CCN(c2ccc(OCC3COC(Cn4ccnc4)(c4ccc(Cl)cc4Cl)O3)cc2)CC1 (stereo unspecified) [KETOCONAZOLE]	50 µg/mL (≈ 94.1 µM)	40 µg/mL (≈ 75.3 µM)	–	–	–	–	–

Further lines, results first:

MIC (Candida albicans)	MIC (Aspergillus niger)	MIC (Klebsiella pneumoniae)	MIC (Pseudomonas aeruginosa)	MIC (Escherichia coli)	MIC (Bacillus cereus)	MIC (Staphylococcus aureus)	SMILES
70 µg/mL (≈ 145 µM)	55 µg/mL (≈ 114 µM)	105 µg/mL (≈ 217 µM)	70 µg/mL (≈ 145 µM)	60 µg/mL (≈ 124 µM)	95 µg/mL (≈ 197 µM)	65 µg/mL (≈ 135 µM)	CC(=O)Nc1ccc(S(=O)(=O)NCc2nc3ccccc3c(=O)n2-c2cccc(Cl)c2)cc1
65 µg/mL (≈ 135 µM)	55 µg/mL (≈ 114 µM)	85 µg/mL (≈ 176 µM)	65 µg/mL (≈ 135 µM)	60 µg/mL (≈ 124 µM)	90 µg/mL (≈ 186 µM)	60 µg/mL (≈ 124 µM)	CC(=O)Nc1ccc(S(=O)(=O)NCc2nc3ccccc3c(=O)n2-c2ccc(Cl)cc2)cc1
70 µg/mL (≈ 133 µM)	60 µg/mL (≈ 114 µM)	95 µg/mL (≈ 180 µM)	75 µg/mL (≈ 142 µM)	65 µg/mL (≈ 123 µM)	95 µg/mL (≈ 180 µM)	70 µg/mL (≈ 133 µM)	CC(=O)Nc1ccc(S(=O)(=O)NCc2nc3ccccc3c(=O)n2-c2ccccc2Br)cc1
70 µg/mL (≈ 133 µM)	55 µg/mL (≈ 104 µM)	90 µg/mL (≈ 171 µM)	70 µg/mL (≈ 133 µM)	70 µg/mL (≈ 133 µM)	90 µg/mL (≈ 171 µM)	65 µg/mL (≈ 123 µM)	CC(=O)Nc1ccc(S(=O)(=O)NCc2nc3ccccc3c(=O)n2-c2cccc(Br)c2)cc1
60 µg/mL (≈ 114 µM)	50 µg/mL (≈ 94.8 µM)	90 µg/mL (≈ 171 µM)	65 µg/mL (≈ 123 µM)	65 µg/mL (≈ 123 µM)	95 µg/mL (≈ 180 µM)	60 µg/mL (≈ 114 µM)	CC(=O)Nc1ccc(S(=O)(=O)NCc2nc3ccccc3c(=O)n2-c2ccc(Br)cc2)cc1
80 µg/mL (≈ 173 µM)	75 µg/mL (≈ 162 µM)	120 µg/mL (≈ 259 µM)	115 µg/mL (≈ 249 µM)	80 µg/mL (≈ 173 µM)	105 µg/mL (≈ 227 µM)	95 µg/mL (≈ 205 µM)	CC(=O)Nc1ccc(S(=O)(=O)NCc2nc3ccccc3c(=O)n2-c2cccc(C)c2)cc1
85 µg/mL (≈ 184 µM)	70 µg/mL (≈ 151 µM)	115 µg/mL (≈ 249 µM)	105 µg/mL (≈ 227 µM)	85 µg/mL (≈ 184 µM)	105 µg/mL (≈ 227 µM)	95 µg/mL (≈ 205 µM)	CC(=O)Nc1ccc(S(=O)(=O)NCc2nc3ccccc3c(=O)n2-c2ccc(C)cc2)cc1
